Experiments:
recombinant human MER = target: T1, recombinant human MER (Homo sapiens, UniProt Q12866); test: HTRF KinEASE-TK biochemical potency, MER; conditions: 1 nM MER, 700 μM ATP
T1 construct: purchased Invitrogen
T1 sequence (Q12866 21-999): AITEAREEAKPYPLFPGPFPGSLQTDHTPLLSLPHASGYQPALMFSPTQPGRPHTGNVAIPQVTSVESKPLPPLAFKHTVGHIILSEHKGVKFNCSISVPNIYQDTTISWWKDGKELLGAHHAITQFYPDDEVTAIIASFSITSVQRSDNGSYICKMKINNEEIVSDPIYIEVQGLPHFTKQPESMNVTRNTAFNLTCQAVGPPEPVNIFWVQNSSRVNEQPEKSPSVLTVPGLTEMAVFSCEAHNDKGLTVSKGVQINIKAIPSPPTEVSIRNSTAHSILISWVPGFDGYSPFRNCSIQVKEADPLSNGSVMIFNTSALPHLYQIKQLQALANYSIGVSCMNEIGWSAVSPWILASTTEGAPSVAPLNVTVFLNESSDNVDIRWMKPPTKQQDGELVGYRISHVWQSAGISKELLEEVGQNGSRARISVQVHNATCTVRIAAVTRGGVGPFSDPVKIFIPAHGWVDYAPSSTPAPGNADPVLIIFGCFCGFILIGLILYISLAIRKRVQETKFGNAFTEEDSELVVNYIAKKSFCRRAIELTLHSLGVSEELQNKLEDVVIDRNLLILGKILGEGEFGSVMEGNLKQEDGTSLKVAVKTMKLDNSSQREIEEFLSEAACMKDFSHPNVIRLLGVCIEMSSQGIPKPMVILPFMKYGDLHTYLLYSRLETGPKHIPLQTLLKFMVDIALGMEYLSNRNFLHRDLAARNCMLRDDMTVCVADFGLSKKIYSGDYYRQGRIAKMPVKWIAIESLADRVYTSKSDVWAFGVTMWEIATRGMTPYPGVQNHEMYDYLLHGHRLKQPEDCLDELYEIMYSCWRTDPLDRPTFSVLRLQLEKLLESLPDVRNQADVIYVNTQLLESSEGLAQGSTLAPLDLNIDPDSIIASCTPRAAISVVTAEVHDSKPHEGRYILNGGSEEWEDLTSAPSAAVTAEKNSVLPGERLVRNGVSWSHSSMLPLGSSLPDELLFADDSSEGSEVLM
Procedure: (§1) Purified recombinant human AXL, TYRO3 and MER proteins were purchased from Invitrogen™. 10 nM AXL, 2 nM TYRO3 or MER were incubated with varying concentrations of compounds in 50 mM HEPES, pH 7.4, 10 mM MgCl2, 0.01% BSA, 1 mM DTT and 2% DMSO in a total volume of 20 μl in a 384-well microplate (Corning™ #3640) at RT for 1 h. The AXL, TYRO3 and MER enzymatic reaction was initiated by transferring 10 μl of enzyme and compound mixture into 10 μl of 1.6 μM TK Substrate-biotin (HTRF® KinEASE-TK kit, Cisbio) and 1400 μM ATP pre-incubated in 50 mM HEPES, pH 7.4, 10 mM MgCl2, 0.01% BSA, 1 mM DTT in a 384-well microplate (Corning™ #3640) at RT, giving the final reaction conditions: 5 nM AXL, 1 nM TYRO3 or MER, 800 nM TK Substrate-biotin and 700 μM ATP in 50 mM HEPES, pH 7.4, 10 mM MgCl2, 0.01% BSA, 1 mM DTT and 1% DMSO with varying concentrations of compounds. Following 2 h incubation at RT, the AXL, TYRO3 and MER enzymatic reaction was stopped by transfer of 10 μl of reaction into 10 μl of detection mix (400 nM Streptavidin-XL665, 200-fold dilution TK Antibody-Cryptate and detection buffer, HTRF® KinEASE-TK kit, Cisbio) in a white 384-well microplate (Perkin Elmer, OptiPlate 384). After 1 h incubation at RT, the plate was put into a plate reader (Evision) to read at 665/620 nm (acceptor/donor) for HTRF. The value of the DMSO blank (MIN inhibition=100% activity) was used as a negative control. The positive control was established by adding 5 μl of enzyme and DMSO mixture into 10 μl of detection mix followed by addition of 5 μl of TK Substrate-biotin and ATP mixture (MAX inhibition=0% activity). To calculate the percent activity, Equation 1 was used. Ratio665/620 is the value at a given compound concentration: […]

Axl = target: T2, Axl (Homo sapiens, UniProt P30530); test: HTRF KinEASE-TK biochemical potency, AXL; parameters: purchased Invitrogen; conditions: 5 nM AXL, 700 μM ATP
T2 sequence (P30530 26-894): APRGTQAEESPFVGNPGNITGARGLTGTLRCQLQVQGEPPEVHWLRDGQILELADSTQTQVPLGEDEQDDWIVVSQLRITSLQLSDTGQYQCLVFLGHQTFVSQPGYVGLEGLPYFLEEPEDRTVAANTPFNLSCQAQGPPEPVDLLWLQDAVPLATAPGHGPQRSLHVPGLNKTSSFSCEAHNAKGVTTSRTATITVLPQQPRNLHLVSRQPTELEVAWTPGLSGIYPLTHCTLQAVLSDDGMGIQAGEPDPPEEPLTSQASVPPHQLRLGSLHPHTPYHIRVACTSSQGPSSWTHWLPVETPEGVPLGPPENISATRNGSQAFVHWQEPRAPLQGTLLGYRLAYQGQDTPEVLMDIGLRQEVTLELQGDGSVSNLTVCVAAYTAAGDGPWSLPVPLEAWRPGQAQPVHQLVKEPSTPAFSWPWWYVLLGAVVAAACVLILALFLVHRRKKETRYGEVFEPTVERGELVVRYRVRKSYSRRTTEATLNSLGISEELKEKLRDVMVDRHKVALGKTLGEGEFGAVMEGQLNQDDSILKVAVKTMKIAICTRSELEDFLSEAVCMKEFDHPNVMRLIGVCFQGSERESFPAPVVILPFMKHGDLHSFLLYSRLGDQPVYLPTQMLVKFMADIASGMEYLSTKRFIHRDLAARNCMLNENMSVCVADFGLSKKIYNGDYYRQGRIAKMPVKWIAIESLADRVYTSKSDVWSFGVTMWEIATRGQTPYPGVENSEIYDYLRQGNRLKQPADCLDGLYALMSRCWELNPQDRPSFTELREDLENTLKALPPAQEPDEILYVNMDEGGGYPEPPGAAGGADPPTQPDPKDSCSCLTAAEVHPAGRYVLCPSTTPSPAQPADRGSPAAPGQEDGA
Procedure: as §1

Row | Structure (SMILES) | IC50 (recombinant human MER) [nM] | IC50 (Axl) [nM]
1 | CC1(O)CCCOc2cc(-c3n[nH]c4ncc(-c5ccc6c(c5)CCN(C5CCCC5)CC6)cc34)ccc21 (stereo not shown) [Example 28, (8-[5-(3-Cyclopentyl-2,3,4,5-tetrahydro-1H-3-benzazepin-7-yl)-1H-pyrazolo[3,4-b]pyridin-3-yl]-5-methyl-2,3,4,5-tetrahydro-1-benzoxepin-5-ol)] | 100 to 1000 | < 100
2 | CC1(O)CCc2cc(-c3n[nH]c4ncc(-c5ccc6c(c5)CC[C@@H](N5CCCC5)CC6)cc34)ccc21 (stereo partly drawn) [Example 30, 1-Methyl-5-{5-[(7S)-7-(pyrrolidin-1-yl)-6,7,8,9-tetrahydro-5H-benzo[7]annulen-2-yl]-1H-pyrazolo[3,4-b]pyridin-3-yl}-2,3-dihydro-1H-inden-1-ol] | 100 to 1000 | < 100
3 | C[C@H]1CCCN1C1Cc2ccc(-c3cnc4[nH]nc(-c5ccc6c(c5)OCC(C)(C)NC6=O)c4c3)cc2C1 (stereo partly drawn) [Example 39, 3,3-Dimethyl-8-(5-{2-[(2S)-2-methylpyrrolidin-1-yl]-2,3-dihydro-1H-inden-5-yl}-1H-pyrazolo[3,4-b]pyridin-3-yl)-2,3,4,5-tetrahydro-1,4-benzoxazepin-5-one] | 100 to 1000 | < 100
4 | O=C1NCCOc2cc(-c3n[nH]c4ncc(-c5ccc6c(c5)CCC(N5CCCC5)C6)cc34)ccc21 (stereo not shown) [Example 2, 8-{5-[6-(Pyrrolidin-1-yl)-5,6,7,8-tetrahydronaphthalen-2-yl]-1H-pyrazolo[3,4-b]pyridin-3-yl}-2,3,4,5-tetrahydro-1,4-benzoxazepin-5-one] | < 100 | < 100
5 | C[C@H]1CCCN1C1(C)CCc2ccc(-c3cnc4[nH]nc(-c5ccc6c(c5)OCCNC6=O)c4c3)cc2CC1 (stereo partly drawn) [Example 24, 8-(5-{7-Methyl-7-[(2S)-2-methylpyrrolidin-1-yl]-6,7,8,9-tetrahydro-5H-benzo[7]annulen-2-yl}-1H-pyrazolo[3,4-b]pyridin-3-yl)-2,3,4,5-tetrahydro-1,4-benzoxazepin-5-one] | < 100 | < 100
6 | O=C1NCCOc2cc(-c3n[nH]c4ncc(-c5ccc6c(c5)CCC(N5CCNCC5)CC6)cc34)ccc21 (stereo not shown) [Example 48, 8-{5-[7-(Piperazin-1-yl)-6,7,8,9-tetrahydro-5H-benzo[7]annulen-2-yl]-1H-pyrazolo[3,4-b]pyridin-3-yl}-2,3,4,5-tetrahydro-1,4-benzoxazepin-5-one] | < 100 | < 100

Second part, the compound after the results:

Row | IC50 (recombinant human MER) [nM] | IC50 (Axl) [nM] | Structure (SMILES)
7 | < 100 | < 100 | C[C@@H]1CNC(=O)c2ccc(-c3n[nH]c4ncc(-c5ccc6c(c5)CCC(N5CCC[C@H]5C)CC6)cc34)cc2O1 (stereo partly drawn) [Example 59, (2R)-2-Methyl-8-(5-{7-[(2R)-2-methylpyrrolidin-1-yl]-6,7,8,9-tetrahydro-5H-benzo[7]annulen-2-yl}-1H-pyrazolo[3,4-b]pyridin-3-yl)-2,3,4,5-tetrahydro-1,4-benzoxazepin-5-one]
8 | < 100 | < 100 | CC1(C)NS(=O)(=O)c2cc(-c3n[nH]c4ncc(-c5ccc6c(c5)CCC(N5CCCC5)CC6)cc34)ccc21 (stereo not shown) [Example 32, 3,3-Dimethyl-6-{5-[7-(pyrrolidin-1-yl)-6,7,8,9-tetrahydro-5H-benzo[7]annulen-2-yl]-1H-pyrazolo[3,4-b]pyridin-3-yl}-2,3-dihydro-1λ^6,2-benzothiazole-1,1-dione]
9 | < 100 | < 100 | O=C1NCCOc2cc(-c3n[nH]c4ncc(-c5ccc6c(c5)CCNCC6)cc34)ccc21 [Example 53, 8-(5-(2,3,4,5-Tetrahydro-1H-benzo[d]azepin-7-yl)-1H-pyrazolo[3,4-b]pyridin-3-yl)-3,4-dihydrobenzo[f][1,4]oxazepin-5(2H)-one]
10 | < 100 | < 100 | O=C1NCCOc2cc(-c3n[nH]c4ncc(-c5ccc6c(c5)CN(C5CCCC5)CC6)cc34)ccc21 [Example 10, 8-(5-(2-Cyclopentyl-1,2,3,4-tetrahydroisoquinolin-7-yl)-1H-pyrazolo[3,4-b]pyridin-3-yl)-3,4-dihydrobenzo[f][1,4]oxazepin-5(2H)-one]
11 | < 100 | < 100 | C[C@@H]1CCCN1C1CCc2ccc(-c3cnc4[nH]nc(-c5ccc6c(c5)O[C@@H](C)CNC6=O)c4c3)cc2CC1 (stereo partly drawn) [Example 62, (2S)-2-Methyl-8-(5-{7-[(2R)-2-methylpyrrolidin-1-yl]-6,7,8,9-tetrahydro-5H-benzo[7]annulen-2-yl}-1H-pyrazolo[3,4-b]pyridin-3-yl)-2,3,4,5-tetrahydro-1,4-benzoxazepin-5-one]
12 | < 100 | < 100 | CC1(N2CCCC2)CCc2ccc(-c3cnc4[nH]nc(-c5ccc6c(c5)OCCNC6=O)c4c3)cc2CC1 (stereo not shown) [Example 22, 8-{5-[7-Methyl-7-(pyrrolidin-1-yl)-6,7,8,9-tetrahydro-5H-benzo[7]annulen-2-yl]-1H-pyrazolo[3,4-b]pyridin-3-yl}-2,3,4,5-tetrahydro-1,4-benzoxazepin-5-one]
13 | < 100 | < 100 | O=C1NCCOc2cc(-c3n[nH]c4ncc(-c5ccc6c(c5)CCN(C5COC5)CC6)cc34)ccc21 [Example 11, 8-(5-(3-(Oxetan-3-yl)-2,3,4,5-tetrahydro-1H-benzo[d]azepin-7-yl)-1H-pyrazolo[3,4-b]pyridin-3-yl)-3,4-dihydrobenzo[f][1,4]oxazepin-5(2H)-one]
14 | < 100 | < 100 | O=C1NCCOc2cc(-c3n[nH]c4ncc(-c5ccc6c(c5)CCC(N5CCC[C@@H]5CO)CC6)cc34)ccc21 (stereo partly drawn) [Example 49, 8-(5-{7-[(2R)-2-(Hydroxymethyl)pyrrolidin-1-yl]-6,7,8,9-tetrahydro-5H-benzo[7]annulen-2-yl}-1H-pyrazolo[3,4-b]pyridin-3-yl)-2,3,4,5-tetrahydro-1,4-benzoxazepin-5-one]
